Test results: US9120770B2, “Substituted pyridine and pyrazine compounds as PDE4 inhibitors” (DART NEUROSCIENCE (CAYMAN) LTD., priority 2013, dated 2015)

Molecular target: PDE4D3 (Homo sapiens, UniProt Q08499)
Sequence (Q08499 1-673 isoform Q08499-2): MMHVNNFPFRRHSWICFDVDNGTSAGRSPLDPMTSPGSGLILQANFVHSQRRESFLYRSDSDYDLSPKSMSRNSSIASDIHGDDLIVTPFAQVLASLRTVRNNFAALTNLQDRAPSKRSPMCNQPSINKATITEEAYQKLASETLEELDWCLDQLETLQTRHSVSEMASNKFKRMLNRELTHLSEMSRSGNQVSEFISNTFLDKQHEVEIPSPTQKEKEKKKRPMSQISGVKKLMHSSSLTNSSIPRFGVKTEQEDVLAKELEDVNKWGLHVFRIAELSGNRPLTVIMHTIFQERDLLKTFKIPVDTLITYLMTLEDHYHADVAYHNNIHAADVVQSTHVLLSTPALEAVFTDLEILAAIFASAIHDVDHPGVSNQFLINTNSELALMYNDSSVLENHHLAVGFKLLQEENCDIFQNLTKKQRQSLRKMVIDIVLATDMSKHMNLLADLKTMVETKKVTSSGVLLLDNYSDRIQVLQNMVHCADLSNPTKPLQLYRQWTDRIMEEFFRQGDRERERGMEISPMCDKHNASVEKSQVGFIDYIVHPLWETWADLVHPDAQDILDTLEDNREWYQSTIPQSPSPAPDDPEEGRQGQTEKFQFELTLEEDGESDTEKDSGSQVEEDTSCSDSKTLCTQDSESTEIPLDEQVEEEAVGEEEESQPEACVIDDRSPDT

| SMILES | EC50 [nM] |
| --- | --- |
| COc1ncc(Cc2c(C)noc2C)nc1-c1cccc(Cl)c1 [Example 98, 3-(3-Chlorophenyl)-5-[(dimethyl-1,2-oxazol-4-yl)methyl]-2-methoxypyrazine] | 1000 to 10000 |
| Cc1noc(C)c1Cc1cnc(OC(F)F)c(-c2cccc(Cl)c2)c1 [Example 99, 3-(3-Chlorophenyl)-2-(difluoromethoxy)-5-[(dimethyl-1,2-oxazol-4-yl)methyl]pyridine] | 1000 to 10000 |
| CCOC(=O)C1(c2ccc(Cc3cnc(OC(F)F)c(-c4cccc(Cl)c4)c3)cc2)CC1 [Example 101, Ethyl 1-(4-{[5-(3-chlorophenyl)-6-(difluoromethoxy)pyridin-3-yl]methyl}phenyl)cyclopropane-1-carboxylate] | 1000 to 10000 |
| NC(=O)c1ccc(Cc2cnc(OC(F)F)c(-c3cccc(Cl)c3)c2)cn1 [Example 114, 5-{[5-(3-Chlorophenyl)-6-(difluoromethoxy)pyridin-3-yl]methyl}pyridine-2-carboxamide] | 100 to 1000 |
| COc1cccc(-c2cc(Cc3cnc(C(N)=O)nc3)cnc2OC(F)F)c1 [Example 115, 5-{[6-(Difluoromethoxy)-5-(3-methoxyphenyl)pyridin-3-yl]methyl}pyrimidine-2-carboxamide] | 100 to 1000 |
| COc1ncc(Cc2ccc(C(N)=O)nc2)cc1-c1cccc(Cl)c1 [Example 116, 5-{[5-(3-Chlorophenyl)-6-methoxypyridin-3-yl]methyl}pyridine-2-carboxamide] | 100 to 1000 |
| NC(=O)c1ncc(Cc2cnc(OC(F)F)c(-c3cccc(Cl)c3)c2)cn1 [Example 117, 5-{[5-(3-Chlorophenyl)-6-(difluoromethoxy)pyridin-3-yl]methyl}pyrimidine-2-carboxamide] | 100 to 1000 |
| COc1ncc(Cc2cnc(C(N)=O)nc2)cc1-c1cccc(F)c1 [Example 118, 5-{[5-(3-Fluorophenyl)-6-methoxypyridin-3-yl]methyl}pyrimidine-2-carboxamide] | 100 to 1000 |
| COc1ncc(Cc2cnc(C(N)=O)nc2)cc1-c1ccnc(OC(F)F)c1 [Example 120, 5-({5-[2-(Difluoromethoxy)pyridin-4-yl]-6-methoxypyridin-3-yl}methyl)pyrimidine-2-carboxamide] | 100 to 1000 |
| COc1ncc(Cc2cnc(C(N)=O)nc2)cc1-c1cccc(OC(F)F)c1 [Example 121, 5-({5-[3-(Difluoromethoxy)phenyl]-6-methoxypyridin-3-yl}methyl)pyrimidine-2-carboxamide] | 100 to 1000 |
| COC(=O)c1ncn(Cc2cnc(OC)c(-c3cccc(Cl)c3)n2)n1 [Example 127, Methyl 1-{[6-(3-chlorophenyl)-5-methoxypyrazin-2-yl]methyl}-1H-1,2,4-triazole-3-carboxylate] | 1000 to 10000 |
| FC(F)Oc1ncc(Cn2cnc(C3CC3)n2)cc1-c1cccc(Cl)c1 [Example 128, 3-(3-Chlorophenyl)-5-[(3-cyclopropyl-1H-1,2,4-triazol-1-yl)methyl]-2-(difluoromethoxy)pyridine] | 100 to 1000 |
| COc1ncc(Cn2cncn2)cc1-c1cccc(F)c1 [Example 129, 3-(3-Fluorophenyl)-2-methoxy-5-(1H-1,2,4-triazol-1-ylmethyl)pyridine] | 100 to 1000 |
| COc1ncc(Cn2cncn2)nc1-c1cccc(Cl)c1 [Example 130, 3-(3-Chlorophenyl)-2-methoxy-5-(1H-1,2,4-triazol-1-ylmethyl)pyrazine] | 100 to 1000 |
| COc1ncc(Cn2cnc(C)n2)nc1-c1cccc(Cl)c1 [Example 132, 3-(3-Chlorophenyl)-2-methoxy-5-[(3-methyl-1H-1,2,4-triazol-1-yl)methyl]pyrazine] | 100 to 1000 |
| COc1ncc(Cn2cnc(C3CC3)n2)nc1-c1cccc(Cl)c1 [Example 133, 3-(3-Chlorophenyl)-5-[(3-cyclopropyl-1H-1,2,4-triazol-1-yl)methyl]-2-methoxypyrazine] | 1000 to 10000 |
| CC(C)Oc1ncc(Cn2cncn2)cc1-c1cccc(Cl)c1 [Example 135, 3-(3-Chlorophenyl)-2-(propan-2-yloxy)-5-(1H-1,2,4-triazol-1-ylmethyl)pyridine] | 1000 to 10000 |
| COc1ncc(Cn2cncn2)cc1-c1cccc(C#N)c1 [Example 136, 3-[2-Methoxy-5-(1H-1,2,4-triazol-1-ylmethyl)pyridin-3-yl]benzonitrile] | 100 to 1000 |

The remaining lines, values ahead:

| EC50 [nM] | SMILES |
| --- | --- |
| < 100 | CNc1ncc(Cc2cnc(OC(F)F)c(-c3cccc(Cl)c3)c2)cn1 [Example 93, 5-{[5-(3-Chlorophenyl)-6-(difluoromethoxy)pyridin-3-yl]methyl}-N-methylpyrimidin-2-amine] |
| 100 to 1000 | FC(F)Oc1ncc(Cc2cnc(NCC(F)(F)F)nc2)cc1-c1cccc(Cl)c1 [Example 94, 5-{[5-(3-Chlorophenyl)-6-(difluoromethoxy)pyridin-3-yl]methyl}-N-(2,2,2-trifluoroethyl)pyrimidin-2-amine] |
| < 100 | COc1ncc(Cc2cnoc2)nc1-c1cccc(Cl)c1 [Example 95, 3-(3-Chlorophenyl)-2-methoxy-5-(1,2-oxazol-4-ylmethyl)pyrazine] |
| 100 to 1000 | COc1ncc(Cc2cnoc2)cc1-c1cccc(Cl)c1 [Example 96, 3-(3-Chlorophenyl)-2-methoxy-5-(1,2-oxazol-4-ylmethyl)pyridine] |
| 100 to 1000 | FC(F)Oc1ncc(Cc2cnoc2)cc1-c1cccc(Cl)c1 [Example 97, 3-(3-Chlorophenyl)-2-(difluoromethoxy)-5-(1,2-oxazol-4-ylmethyl)pyridine] |
| < 100 | COC(=O)Cc1ccc(Cc2cnc(OC(F)F)c(-c3cccc(Cl)c3)c2)cc1 [Example 100, Methyl 2-(4-{[5-(3-chlorophenyl)-6-(difluoromethoxy)pyridin-3-yl]methyl}phenyl)acetate] |
| 100 to 1000 | FC(F)Oc1ncc(Cc2ccc(OCC3CC3)nc2)cc1-c1cccc(Cl)c1 [Example 102, 3-(3-Chlorophenyl)-5-{[6-(cyclopropylmethoxy)pyridin-3-yl]methyl}-2-(difluoromethoxy)pyridine] |
| < 100 | CCOc1ncc(Cc2ccc(C#N)nc2)nc1-c1cccc(OC(F)F)c1 [Example 103, 5-({6-[3-(Difluoromethoxy)phenyl]-5-ethoxypyrazin-2-yl}methyl)pyridine-2-carbonitrile] |
| < 100 | CCOc1ncc(Cc2cnc(N)nc2)nc1-c1cccc(OC(F)F)c1 [Example 104, 5-({6-[3-(Difluoromethoxy)phenyl]-5-ethoxypyrazin-2-yl}methyl)pyrimidin-2-amine] |
| < 100 | CCOc1ncc(Cc2cnc(N)nc2)nc1-c1cccc(Cl)c1 [Example 105, 5-{[6-(3-Chlorophenyl)-5-ethoxypyrazin-2-yl]methyl}pyrimidin-2-amine] |
| < 100 | COc1ncc(Cc2cnc(N)nc2)nc1-c1cccc(OC(F)F)c1 [Example 106, 5-({6-[3-(Difluoromethoxy)phenyl]-5-methoxypyrazin-2-yl}methyl)pyrimidin-2-amine] |
| < 100 | COc1ncc(Cc2cnc(C#N)nc2)nc1-c1cccc(OC(F)F)c1 [Example 107, 5-({6-[3-(Difluoromethoxy)phenyl]-5-methoxypyrazin-2-yl}methyl)pyrimidine-2-carbonitrile] |
| 100 to 1000 | CCOc1ncc(Cc2cnc(C#N)nc2)nc1-c1cccc(Cl)c1 [Example 108, 5-{[6-(3-Chlorophenyl)-5-ethoxypyrazin-2-yl]methyl}pyrimidine-2-carbonitrile] |
| 100 to 1000 | FC(F)Oc1ncc(Cc2ccccn2)cc1-c1cccc(Cl)c1 [Example 109, 3-(3-Chlorophenyl)-2-(difluoromethoxy)-5-(pyridin-2-ylmethyl)pyridine] |
| < 100 | FC(F)Oc1ncc(Cc2cnccn2)cc1-c1cccc(Cl)c1 [Example 110, 2-{[5-(3-Chlorophenyl)-6-(difluoromethoxy)pyridin-3-yl]methyl}pyrazine] |
| 100 to 1000 | Nc1ccc(Cc2cnc(OC(F)F)c(-c3cccc(Cl)c3)c2)nn1 [Example 111, 6-{[5-(3-Chlorophenyl)-6-(difluoromethoxy)pyridin-3-yl]methyl}pyridazin-3-amine] |
| 100 to 1000 | COc1nc(C)c(Cn2cncn2)cc1-c1cccc(Cl)c1 [Example 112, 3-(3-Chlorophenyl)-2-methoxy-6-methyl-5-(1H-1,2,4-triazol-1-ylmethyl)pyridine] |
| 100 to 1000 | COc1ncc(Cc2ccc(C(N)=O)cc2)nc1-c1cccc(Cl)c1 [Example 113, 4-{[6-(3-Chlorophenyl)-5-methoxypyrazin-2-yl]methyl}benzamide] |
| < 100 | CCOc1ncc(Cc2cnc(C(N)=O)nc2)cc1-c1cccc(OC(F)F)c1 [Example 119, 5-({5-[3-(Difluoromethoxy)phenyl]-6-ethoxypyridin-3-yl}methyl)pyrimidine-2-carboxamide] |
| < 100 | CCOc1ncc(Cc2cnc(C(N)=O)nc2)cc1-c1ccnc(OC(F)F)c1 [Example 122, 5-({5-[2-(Difluoromethoxy)pyridin-4-yl]-6-ethoxypyridin-3-yl}methyl)pyrimidine-2-carboxamide] |
| < 100 | COc1ncc(Cc2cnc(C(N)=O)nc2)nc1-c1cccc(Cl)c1 [Example 123, 5-{[6-(3-Chlorophenyl)-5-methoxypyrazin-2-yl]methyl}pyrimidine-2-carboxamide] |
| < 100 | CCOc1ncc(Cc2ccc(C(N)=O)nc2)nc1-c1cccc(OC(F)F)c1 [Example 124, 5-({6-[3-(Difluoromethoxy)phenyl]-5-ethoxypyrazin-2-yl}methyl)pyridine-2-carboxamide] |
| < 100 | COc1ncc(Cc2cnc(C(N)=O)nc2)nc1-c1cccc(OC(F)F)c1 [Example 125, 5-({6-[3-(Difluoromethoxy)phenyl]-5-methoxypyrazin-2-yl}methyl)pyrimidine-2-carboxamide] |
| < 100 | CCOc1ncc(Cc2cnc(C(N)=O)nc2)nc1-c1cccc(Cl)c1 [Example 126, 5-{[6-(3-Chlorophenyl)-5-ethoxypyrazin-2-yl]methyl}pyrimidine-2-carboxamide] |
| < 100 | FC(F)Oc1ncc(Cn2cncn2)cc1-c1cccc(Cl)c1 [Example 131, 3-(3-Chlorophenyl)-2-(difluoromethoxy)-5-(1H-1,2,4-triazol-1-ylmethyl)pyridine] |
| < 100 | COc1ncc(Cn2cncn2)cc1-c1cccc(Cl)c1 [Example 134, 3-(3-Chlorophenyl)-2-methoxy-5-(1H-1,2,4-triazol-1-ylmethyl)pyridine] |
